{"source": "paper PMC11589570", "about": "“Critical assessment of LC3/GABARAP ligands used for degrader development and ligandability of LC3/GABARAP binding pockets” (Nature Communications, 2024)", "key": {"GABARAP": {"molecular_target": "GABARAP (Homo sapiens, UniProt O95166)", "sequence (O95166 1-116)": "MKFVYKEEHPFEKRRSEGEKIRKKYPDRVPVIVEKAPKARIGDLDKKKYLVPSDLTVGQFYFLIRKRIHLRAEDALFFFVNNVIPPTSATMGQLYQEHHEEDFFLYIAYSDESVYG", "experiment": "FP assay with Cy5-labelled p62 LIR tracer (protein titration and tracer displacement)", "type": "binding", "conditions": "for normalized FP signal, p62 LIR tracer displacement: GABARAP; for compound titration GABARAP (displacement curve, FP signal): two replicate columns per compound"}, "GABARAPL2": {"molecular_target": "GABARAPL2 (Homo sapiens, UniProt P60520)", "sequence (P60520 whole entry)": "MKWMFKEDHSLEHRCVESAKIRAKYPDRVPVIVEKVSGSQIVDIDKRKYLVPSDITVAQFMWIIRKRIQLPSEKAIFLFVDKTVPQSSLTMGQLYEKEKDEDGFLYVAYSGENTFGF", "experiment": "FP assay with Cy5-labelled p62 LIR tracer (protein titration and tracer displacement)", "conditions": "GABARAPL2"}, "U2OS cells": {"test_system": "U2OS cells", "experiment": "Cell growth assay (IncuCyte confluence over 72 h)", "type": "cell-based", "set-up": "key to U2OS cell growth: % of well area covered by cells (confluence)", "procedure": "Cell growth assay: Cell confluence (phase) from RPE1 (hTERT RPE-1, ATCC CLR_4000) or U2OS (ATCC, HTB-96) cell lines were monitored over time with the IncuCyte S3 (Sartiorius, Germany) in 384-well plates in 50 ul DMEM media, supplemented with 10% Fetal Bovine Serum (FBS) 1% penicillin/Streptomycin and incubated 24 h before treatment. Experiment was performed as described in Cano-Franco et al.. […] Cell confluence is represented as % of area covered by cells. Each data point represents the average ratio or confluence obtained from three individual wells of the plate."}, "[1]": {"conditions": "log10 concentration [M] -3.82391, listed as 10O5"}, "[2]": {"conditions": "log10 concentration [M] -4.1549, listed as 10O5"}, "[3]": {"conditions": "log10 concentration [M] -4.60206, listed as 10O5"}, "[4]": {"conditions": "log10 concentration [M] -5, listed as 10O5"}, "[5]": {"conditions": "log10 concentration [M] -5.30103, listed as 10O5"}, "[6]": {"conditions": "log10 concentration [M] -5.69897, listed as 10O5"}, "[7]": {"conditions": "log10 concentration [M] -6.22185, listed as 10O5"}, "[8]": {"conditions": "log10 concentration [M] -6.69897, listed as 10O5"}, "[9]": {"conditions": "log10 concentration [M] -7.30103"}, "[10]": {"conditions": "log10 concentration [M] -7.79588, listed as 10O5"}, "[11]": {"conditions": "log10 concentration [M] -8.08092, listed as 10O5"}, "[12]": {"conditions": "log10 concentration [M] -6.22185"}, "[13]": {"conditions": "log10 concentration [M] -7.79588"}}, "note": "Values joined by “and” are separate entries in the source; they are usually repeats but may differ in a detail not shown here. Equal values may be shown once."}
{"smiles": "O=C1Nc2ccc(I)cc2C1=Cc1cc(Br)c(O)c(Br)c1", "note": "[compound 4]", "values": [{"measurement": "normalized FP signal, p62 LIR tracer displacement", "setting": "GABARAP; [1]", "value": "56.3793 and 55.1724"}, {"measurement": "normalized FP signal, p62 LIR tracer displacement", "setting": "GABARAP; [2]", "value": "77.5862 and 81.7241"}, {"measurement": "normalized FP signal, p62 LIR tracer displacement", "setting": "GABARAP; [3]", "value": "88.4483 and 91.2069"}, {"measurement": "normalized FP signal, p62 LIR tracer displacement", "setting": "GABARAP; [4]", "value": "92.4138 and 92.2414"}, {"measurement": "normalized FP signal, p62 LIR tracer displacement", "setting": "GABARAP; [5]", "value": "93.9655 and 94.4828"}, {"measurement": "normalized FP signal, p62 LIR tracer displacement", "setting": "GABARAP; [6]", "value": "85.8621 and 86.7241"}, {"measurement": "normalized FP signal, p62 LIR tracer displacement", "setting": "GABARAP; [7]", "value": "92.2414 and 93.1034"}, {"measurement": "normalized FP signal, p62 LIR tracer displacement", "setting": "GABARAP; [8]", "value": "96.7241 and 92.4138"}, {"measurement": "normalized FP signal, p62 LIR tracer displacement", "setting": "GABARAP; [9]", "value": 97.069}, {"measurement": "normalized FP signal, p62 LIR tracer displacement", "setting": "GABARAP; [10]", "value": "90.8621 and 91.5517"}, {"measurement": "normalized FP signal, p62 LIR tracer displacement", "setting": "GABARAP; [11]", "value": "93.2759 and 95"}, {"measurement": "compound titration GABARAP (displacement curve, FP signal)", "setting": "GABARAP; log10 concentration [M] -3.82391", "value": "56.3793 and 55.1724"}, {"measurement": "compound titration GABARAP (displacement curve, FP signal)", "setting": "GABARAP; log10 concentration [M] -4.1549", "value": "77.5862 and 81.7241"}, {"measurement": "compound titration GABARAP (displacement curve, FP signal)", "setting": "GABARAP; log10 concentration [M] -4.60206", "value": "88.4483 and 91.2069"}, {"measurement": "compound titration GABARAP (displacement curve, FP signal)", "setting": "GABARAP; log10 concentration [M] -5", "value": "92.4138 and 92.2414"}, {"measurement": "compound titration GABARAP (displacement curve, FP signal)", "setting": "GABARAP; log10 concentration [M] -5.30103", "value": "93.9655 and 94.4828"}, {"measurement": "compound titration GABARAP (displacement curve, FP signal)", "setting": "GABARAP; log10 concentration [M] -5.69897", "value": "85.8621 and 86.7241"}, {"measurement": "compound titration GABARAP (displacement curve, FP signal)", "setting": "GABARAP; [12]", "value": "92.2414 and 93.1034"}, {"measurement": "compound titration GABARAP (displacement curve, FP signal)", "setting": "GABARAP; log10 concentration [M] -6.69897", "value": "96.7241 and 92.4138"}, {"measurement": "compound titration GABARAP (displacement curve, FP signal)", "setting": "GABARAP; [9]", "value": 97.069}, {"measurement": "compound titration GABARAP (displacement curve, FP signal)", "setting": "GABARAP; [13]", "value": "90.8621 and 91.5517"}, {"measurement": "compound titration GABARAP (displacement curve, FP signal)", "setting": "GABARAP; log10 concentration [M] -8.08092", "value": "93.2759 and 95"}, {"measurement": "interaction in FP displacement assay", "setting": "GABARAPL2", "value": "weak interaction"}, {"measurement": "normalized FP signal, p62 LIR tracer displacement", "setting": "GABARAPL2; [1]", "value": "56 and 50.4"}, {"measurement": "normalized FP signal, p62 LIR tracer displacement", "setting": "GABARAPL2; [2]", "value": "57.2 and 62.4"}, {"measurement": "normalized FP signal, p62 LIR tracer displacement", "setting": "GABARAPL2; [3]", "value": "87.2 and 100.4"}, {"measurement": "normalized FP signal, p62 LIR tracer displacement", "setting": "GABARAPL2; [4]", "value": "94.4 and 99.2"}, {"measurement": "normalized FP signal, p62 LIR tracer displacement", "setting": "GABARAPL2; [5]", "value": "99.6 and 96"}, {"measurement": "normalized FP signal, p62 LIR tracer displacement", "setting": "GABARAPL2; [6]", "value": "86.4 and 92.4"}, {"measurement": "normalized FP signal, p62 LIR tracer displacement", "setting": "GABARAPL2; [12]", "value": 100.4}, {"measurement": "normalized FP signal, p62 LIR tracer displacement", "setting": "GABARAPL2; [7]", "value": 93.6}, {"measurement": "normalized FP signal, p62 LIR tracer displacement", "setting": "GABARAPL2; [8]", "value": "96 and 103.2"}, {"measurement": "normalized FP signal, p62 LIR tracer displacement", "setting": "GABARAPL2; log10 concentration [M] -7.30103, listed as 10O5", "value": "102.4 and 90.4"}, {"measurement": "normalized FP signal, p62 LIR tracer displacement", "setting": "GABARAPL2; [13]", "value": 94.8}, {"measurement": "normalized FP signal, p62 LIR tracer displacement", "setting": "GABARAPL2; [10]", "value": 95.2}, {"measurement": "normalized FP signal, p62 LIR tracer displacement", "setting": "GABARAPL2; [11]", "value": "111.2 and 97.6"}, {"measurement": "U2OS cell growth", "setting": "U2OS cells; 100 nM, time 0 h, listed as 10O5", "value": "16.9992 and 15.7304 and 22.471"}, {"measurement": "U2OS cell growth", "setting": "U2OS cells; 100 nM, time 2 h, listed as 10O5", "value": "30.0536 and 23.3693 and 30.9556"}, {"measurement": "U2OS cell growth", "setting": "U2OS cells; 100 nM, time 4 h, listed as 10O5", "value": "26.8783 and 18.0548 and 26.389"}, {"measurement": "U2OS cell growth", "setting": "U2OS cells; 100 nM, time 6 h, listed as 10O5", "value": "32.427 and 24.5344 and 29.4691"}, {"measurement": "U2OS cell growth", "setting": "U2OS cells; 500 nM, time 0 h, listed as 10O5", "value": "22.1626 and 25.7214 and 24.1436"}, {"measurement": "U2OS cell growth", "setting": "U2OS cells; 500 nM, time 2 h, listed as 10O5", "value": "30.4879 and 29.4429 and 31.5602"}, {"measurement": "U2OS cell growth", "setting": "U2OS cells; 500 nM, time 4 h, listed as 10O5", "value": "27.0048 and 26.6361 and 29.202"}, {"measurement": "U2OS cell growth", "setting": "U2OS cells; 500 nM, time 6 h, listed as 10O5", "value": "26.7875 and 33.8054 and 33.8287"}, {"measurement": "U2OS cell growth", "setting": "U2OS cells; 500 nM, time 8 h", "value": 33.7413}, {"measurement": "U2OS cell growth", "setting": "U2OS cells; 500 nM, time 10 h", "value": 39.0222}, {"measurement": "U2OS cell growth", "setting": "U2OS cells; 1 uM, time 0 h, listed as 10O5", "value": "28.8978 and 24.3384 and 24.2638"}, {"measurement": "U2OS cell growth", "setting": "U2OS cells; 1 uM, time 2 h, listed as 10O5", "value": "33.9341 and 25.1214 and 23.3142"}, {"measurement": "U2OS cell growth", "setting": "U2OS cells; 1 uM, time 4 h, listed as 10O5", "value": "34.8975 and 25.1189 and 23.4121"}, {"measurement": "U2OS cell growth", "setting": "U2OS cells; 1 uM, time 6 h, listed as 10O5", "value": "36.2035 and 30.6761 and 30.4629"}, {"measurement": "U2OS cell growth", "setting": "U2OS cells; 1 uM, time 8 h, listed as 10O5", "value": "37.0589 and 28.0551 and 29.5538"}, {"measurement": "U2OS cell growth", "setting": "U2OS cells; 1 uM, time 10 h, listed as 10O5", "value": "40.6527 and 32.3336 and 34.2928"}, {"measurement": "U2OS cell growth", "setting": "U2OS cells; 1 uM, time 12 h, listed as 10O5", "value": 39.0418}, {"measurement": "U2OS cell growth", "setting": "U2OS cells; 3 uM, time 0 h, listed as 10O5", "value": "28.8395 and 29.1487 and 34.5356"}, {"measurement": "U2OS cell growth", "setting": "U2OS cells; 3 uM, time 2 h, listed as 10O5", "value": "33.8786 and 32.6567 and 36.3335"}, {"measurement": "U2OS cell growth", "setting": "U2OS cells; 3 uM, time 4 h, listed as 10O5", "value": "28.2335 and 26.3394 and 40.569"}, {"measurement": "U2OS cell growth", "setting": "U2OS cells; 3 uM, time 6 h, listed as 10O5", "value": "37.1398 and 33.8156 and 39.1483"}]}
